Consider one compound from patent US8420307B2, “Sperm cryoprotective media” (The Jackson Laboratory, priority 2006, dated 2013).

One assay has as its system bull sperm. As to the kind of experiment: Bovine sperm post-thaw motility (IVOS). It counts as cell-based, Holstein bulls. Particulars: MTG 0, 100, 500, 1000 or 5000 μM in Triladyl egg yolk extender containing glycerol; 0 and 3 hr. As for the experimental part: Semen was collected via an artificial vagina from 6 different Holstein bulls over 3 different days. The bulls were selected such that three produce sperm with good consistent freezing quality and three produce sperm that respond to cryopreservation with poorer consistency. Antibiotics were added to the neat semen and initial volume and concentration were determined using a graduated cylinder and spectrophotometry. From each collection, 5 different 500 μL aliquots of semen were extended with 1.5 mL of Triladyl egg yolk extender (Minitube; Verona, Wis.) containing glycerol. Subsequently, 2 mL of the same extender containing no MTG, 200, 1000, 2000 or 10,000 μM MTG was added to the extended semen to yield the final concentrations for MTG of 0, 100, 500, 1000 or 5000 μM. […]
(§1) For the examination, 6 straws per treatment per collection were thawed in a 37° C. water bath for at least 60 sec. For each treatment within a collection, two pools of semen were created and analyzed by combining the contents of three straws. […] The percent of motile sperm was determined on 4 different fields within each of 2 separate chambers. For viability the sperm samples were diluted 1:100 in PBS and stained with SYBR 14 ([…]) and propidium iodide (12 μM About 10,000 cells were counted using the Partec Flomax Flow Cytometer (Ft. Collins, Colo.).

For a further assay, the system named is bovine sperm. The experiment in a line: Bovine sperm post-thaw viability (SYBR 14 / propidium iodide flow cytometry). The format is cell-based, Holstein bulls. As for the experimental part:
Sperm from three collections from each of 6 different bulls were frozen in the presence of MTG at the concentrations indicated on the x-axes. For each collection, two sets of three straws each were created and analyzed twice for sperm viability. Differences in sperm cell viability among the treatments were determined using analysis of variance on arcsine transformed percents and preplanned comparisons to the control of no MTG using Dunnett's method. Panel A illustrates the mean and standard errors for the 6 bulls while panels B though G illustrate the percent of viable sperm for the individuals. […]
Semen was collected via an artificial vagina from 6 different Holstein bulls over 3 different days. […] Antibiotics were added to the neat semen and initial volume and concentration were determined using a graduated cylinder and spectrophotometry. […]
as §1
A general note: In flow cytometry, cells or beads pass a laser one at a time.

The next assay has as its system Rat Sperm. The experiment in a line: Rat sperm motility after cryopreservation and thawing. The format is cell-based, LEW/SsNHsd rat. As to conditions: addition of 477 μM MTG to lactose/egg yolk media. As for the experimental part:
The epididymides and vas deferentia were collected from one 33 week old LEW/SsNHsd rat (Harlan, Indianapolis, Ind.). Incisions were made in the tissue and the sperm were allowed to swim out, into 2 mL of a solution containing 8% lactose [w/v] (Sigma Aldrich; St. Louis, Mo.) and 23% egg yolk [v/v] from fresh eggs in distilled water (Invitrogen; Carlsbad, Calif.) for 10 min. The sperm suspension was then split with half being placed into the lactose/egg yolk solution and the other half being suspended in lactose/egg yolk solution containing 954 micromol MTG in 15 mL conical tubes. […] The 15 mL conical tubes containing the sperm samples were placed into a beaker containing ˜150 mL of 15° C. water for 10 min. […]
The sperm were loaded into 250 μL French straws (IMV; Maple Grove, Minn.; cat# AAA201), which were then sealed with an instantaneous heat sealer (model AIE-305HD; American International Electric; Whittier, Calif.) and 5 of them loaded into cassettes (Zanders Medical Supplies; Vero Beach, Fla.). […] The sperm were diluted 1:50 in Cooks Mouse Vitro Fert (Cook's; Spencer, Ind.) and motility was evaluated by counting at least 5 different fields using a video monitor connected to a microscope using a magnification of 40×. […]

Entries after “also recorded” stand apart in the source; their conditions may differ.

In the case of `OCC(O)CS` (stereo not shown) [MTG, monothioglycerol], the “overall post-thaw motility of bull sperm” value in the assay on bull sperm is reported as “no ill effects”. For the same compound, in the assay with bovine sperm (MTG 0, 100, 500, 1000 or 5000 μM in egg yolk extender containing glycerol, 6 bulls, FIG. 5), the “post-thaw viability of bovine sperm” value was “not negatively influenced; also recorded: enhances post-thaw viability”. Further, in the assay with bovine sperm (bovine sperm, 3 bulls with slight effect), the increase of viability entry is given as “slight effect”. Besides, in the assay with Rat Sperm, the “rat sperm motility after thawing, effect in words” value was “increased motility”.
